Columns and labels:
Test in all cases: KinomeScan profiling
Assay type in all cases: binding
PKAC-beta = target: T1, PKAC-beta (Homo sapiens, UniProt P22694); details: read-out: % control
T1 construct: purchased KinomeScan® (panel service)
How it was run: (§1)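 Test agents were profiled at a single concentration of 1 μM (DMSO vehicle) on a near-complete set of 468 kinases. Signal is reported relative to vehicle (100%) and a fully displacing control (0%).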

ACVR2B = target: T2, ACVR2B (Homo sapiens, UniProt Q13705); details: read-out: % control
T2 construct: purchased KinomeScan®
How it was run: as §1

TRKB = TRKB (Homo sapiens, UniProt Q16620); details: read-out: % control
How it was run: as §1

DAPK1 = DAPK1 (Homo sapiens, UniProt P53355); details: DAPK1, 1 μM; read-out: % control
How it was run: as §1

TRPM6 = TRPM6 (Homo sapiens, UniProt Q9BX84); details: TRPM6, 1 μM; read-out: % control
How it was run: as §1

FES = FES (Homo sapiens, UniProt P07332); details: read-out: % control
How it was run: as §1

MYO3A = MYO3A (Homo sapiens, UniProt Q8NEV4); details: read-out: % control
How it was run: as §1

AURKA = target: T3, AURKA (Homo sapiens, UniProt O14965); details: read-out: % control
T3 construct: purchased KinomeScan®
T3 sequence (O14965 1-403): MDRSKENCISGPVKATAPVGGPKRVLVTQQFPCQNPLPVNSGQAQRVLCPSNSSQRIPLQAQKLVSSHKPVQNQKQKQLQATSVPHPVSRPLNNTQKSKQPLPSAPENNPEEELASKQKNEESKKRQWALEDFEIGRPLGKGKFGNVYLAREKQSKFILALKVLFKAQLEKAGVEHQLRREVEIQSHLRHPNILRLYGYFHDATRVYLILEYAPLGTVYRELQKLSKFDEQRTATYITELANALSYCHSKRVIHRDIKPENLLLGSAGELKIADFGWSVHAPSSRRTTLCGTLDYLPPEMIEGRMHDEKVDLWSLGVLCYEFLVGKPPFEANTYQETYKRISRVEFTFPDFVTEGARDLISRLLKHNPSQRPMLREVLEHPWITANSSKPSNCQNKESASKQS
How it was run: as §1

LOK = LOK (Homo sapiens, UniProt O94804); details: read-out: % control
How it was run: as §1

DCAMKL2 = target: T4, DCAMKL2 (Homo sapiens, UniProt Q8N568); details: DCAMKL2, 1 μM; read-out: % control
T4 sequence (Q8N568 1-766): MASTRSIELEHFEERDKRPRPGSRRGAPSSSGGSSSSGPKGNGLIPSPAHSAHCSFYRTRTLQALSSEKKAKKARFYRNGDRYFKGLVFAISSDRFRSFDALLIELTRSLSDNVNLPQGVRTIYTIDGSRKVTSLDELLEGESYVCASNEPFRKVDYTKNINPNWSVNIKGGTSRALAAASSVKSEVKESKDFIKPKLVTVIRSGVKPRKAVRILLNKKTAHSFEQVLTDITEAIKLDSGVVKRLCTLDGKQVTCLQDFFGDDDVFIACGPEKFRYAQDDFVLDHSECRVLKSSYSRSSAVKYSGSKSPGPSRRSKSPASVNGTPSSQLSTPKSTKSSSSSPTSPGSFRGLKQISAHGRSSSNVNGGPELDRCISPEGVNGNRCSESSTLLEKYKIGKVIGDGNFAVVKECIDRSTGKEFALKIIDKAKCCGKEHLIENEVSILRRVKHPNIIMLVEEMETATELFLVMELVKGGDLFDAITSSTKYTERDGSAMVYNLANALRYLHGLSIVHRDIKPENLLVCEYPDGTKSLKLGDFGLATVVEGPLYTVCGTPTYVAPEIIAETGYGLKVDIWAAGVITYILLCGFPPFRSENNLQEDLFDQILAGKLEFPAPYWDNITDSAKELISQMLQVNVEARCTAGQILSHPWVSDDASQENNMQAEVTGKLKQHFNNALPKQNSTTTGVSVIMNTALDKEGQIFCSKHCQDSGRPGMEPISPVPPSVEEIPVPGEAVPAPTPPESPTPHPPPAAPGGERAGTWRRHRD
How it was run: as §1

PRKCE = target: T5, PRKCE (Homo sapiens, UniProt Q02156); details: read-out: % control
T5 sequence (Q02156 1-737): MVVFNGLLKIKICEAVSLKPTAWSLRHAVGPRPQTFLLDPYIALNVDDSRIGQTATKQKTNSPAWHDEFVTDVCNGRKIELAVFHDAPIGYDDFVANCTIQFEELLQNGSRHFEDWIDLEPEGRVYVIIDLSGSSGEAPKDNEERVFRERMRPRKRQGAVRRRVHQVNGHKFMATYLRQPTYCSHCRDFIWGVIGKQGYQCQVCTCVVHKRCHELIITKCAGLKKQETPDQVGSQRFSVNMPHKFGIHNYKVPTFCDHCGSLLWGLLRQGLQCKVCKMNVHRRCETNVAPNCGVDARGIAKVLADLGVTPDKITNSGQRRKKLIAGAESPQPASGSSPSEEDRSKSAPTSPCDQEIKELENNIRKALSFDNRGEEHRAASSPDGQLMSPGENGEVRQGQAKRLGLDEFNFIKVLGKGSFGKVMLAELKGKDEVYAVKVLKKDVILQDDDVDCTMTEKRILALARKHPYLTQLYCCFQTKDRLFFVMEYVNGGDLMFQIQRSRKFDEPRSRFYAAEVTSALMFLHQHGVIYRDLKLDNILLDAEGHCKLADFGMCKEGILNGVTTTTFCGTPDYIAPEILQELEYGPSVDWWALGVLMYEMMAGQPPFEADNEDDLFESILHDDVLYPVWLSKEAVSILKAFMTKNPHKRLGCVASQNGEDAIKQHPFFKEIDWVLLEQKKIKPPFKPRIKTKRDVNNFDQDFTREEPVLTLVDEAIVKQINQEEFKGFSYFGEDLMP
How it was run: as §1

KIT(V559D) = target: T6, KIT(V559D) (Homo sapiens, UniProt P10721, V559D); details: read-out: % control
T6 construct: purchased KinomeScan®
How it was run: as §1

CDK11 = CDK11 (Homo sapiens, UniProt Q9BWU1); details: CDK11, 1 μM; read-out: % control
How it was run: as §1

Chain of MYO3A (Q8NEV4 whole entry): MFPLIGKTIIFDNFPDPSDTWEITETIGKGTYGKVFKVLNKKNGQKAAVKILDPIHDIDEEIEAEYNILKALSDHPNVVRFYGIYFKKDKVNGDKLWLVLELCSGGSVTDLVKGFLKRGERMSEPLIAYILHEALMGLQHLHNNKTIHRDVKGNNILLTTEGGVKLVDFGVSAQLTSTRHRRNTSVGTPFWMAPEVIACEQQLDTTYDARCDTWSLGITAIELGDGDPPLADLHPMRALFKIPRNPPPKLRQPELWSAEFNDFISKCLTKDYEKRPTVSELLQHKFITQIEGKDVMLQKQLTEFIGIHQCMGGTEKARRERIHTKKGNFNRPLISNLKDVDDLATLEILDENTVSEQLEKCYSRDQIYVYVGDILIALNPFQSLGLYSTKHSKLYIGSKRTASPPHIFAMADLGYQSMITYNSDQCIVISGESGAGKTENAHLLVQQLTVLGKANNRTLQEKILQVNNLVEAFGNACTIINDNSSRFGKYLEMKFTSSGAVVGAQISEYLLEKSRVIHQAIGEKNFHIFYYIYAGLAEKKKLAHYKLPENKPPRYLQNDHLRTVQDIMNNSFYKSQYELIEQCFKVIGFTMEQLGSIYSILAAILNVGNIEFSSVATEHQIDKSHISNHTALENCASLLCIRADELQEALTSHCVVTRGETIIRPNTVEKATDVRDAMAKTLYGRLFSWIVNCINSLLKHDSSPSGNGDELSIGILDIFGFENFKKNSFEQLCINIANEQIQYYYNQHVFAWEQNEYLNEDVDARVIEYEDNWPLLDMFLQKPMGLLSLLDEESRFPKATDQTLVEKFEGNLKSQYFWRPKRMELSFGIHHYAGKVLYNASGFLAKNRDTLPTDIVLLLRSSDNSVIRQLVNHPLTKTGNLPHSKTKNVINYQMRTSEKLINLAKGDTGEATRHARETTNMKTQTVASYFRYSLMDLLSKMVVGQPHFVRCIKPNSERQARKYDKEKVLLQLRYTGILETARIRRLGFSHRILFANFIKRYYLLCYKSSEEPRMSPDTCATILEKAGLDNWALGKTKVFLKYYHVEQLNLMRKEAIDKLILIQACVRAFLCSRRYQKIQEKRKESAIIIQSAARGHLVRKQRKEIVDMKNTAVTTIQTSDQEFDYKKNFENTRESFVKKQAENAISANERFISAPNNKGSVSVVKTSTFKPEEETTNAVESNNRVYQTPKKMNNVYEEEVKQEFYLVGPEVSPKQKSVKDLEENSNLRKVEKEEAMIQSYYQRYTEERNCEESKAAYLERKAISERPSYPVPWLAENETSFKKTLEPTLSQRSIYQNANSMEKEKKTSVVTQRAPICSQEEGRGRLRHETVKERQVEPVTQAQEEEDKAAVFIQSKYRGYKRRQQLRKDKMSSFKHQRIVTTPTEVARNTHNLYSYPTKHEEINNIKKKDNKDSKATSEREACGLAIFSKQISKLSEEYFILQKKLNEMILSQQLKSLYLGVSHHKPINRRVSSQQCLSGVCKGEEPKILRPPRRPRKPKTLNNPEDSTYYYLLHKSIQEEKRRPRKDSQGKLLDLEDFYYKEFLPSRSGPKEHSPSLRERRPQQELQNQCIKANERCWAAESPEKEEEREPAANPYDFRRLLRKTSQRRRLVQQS
Chain of TRPM6 (Q9BX84 whole entry): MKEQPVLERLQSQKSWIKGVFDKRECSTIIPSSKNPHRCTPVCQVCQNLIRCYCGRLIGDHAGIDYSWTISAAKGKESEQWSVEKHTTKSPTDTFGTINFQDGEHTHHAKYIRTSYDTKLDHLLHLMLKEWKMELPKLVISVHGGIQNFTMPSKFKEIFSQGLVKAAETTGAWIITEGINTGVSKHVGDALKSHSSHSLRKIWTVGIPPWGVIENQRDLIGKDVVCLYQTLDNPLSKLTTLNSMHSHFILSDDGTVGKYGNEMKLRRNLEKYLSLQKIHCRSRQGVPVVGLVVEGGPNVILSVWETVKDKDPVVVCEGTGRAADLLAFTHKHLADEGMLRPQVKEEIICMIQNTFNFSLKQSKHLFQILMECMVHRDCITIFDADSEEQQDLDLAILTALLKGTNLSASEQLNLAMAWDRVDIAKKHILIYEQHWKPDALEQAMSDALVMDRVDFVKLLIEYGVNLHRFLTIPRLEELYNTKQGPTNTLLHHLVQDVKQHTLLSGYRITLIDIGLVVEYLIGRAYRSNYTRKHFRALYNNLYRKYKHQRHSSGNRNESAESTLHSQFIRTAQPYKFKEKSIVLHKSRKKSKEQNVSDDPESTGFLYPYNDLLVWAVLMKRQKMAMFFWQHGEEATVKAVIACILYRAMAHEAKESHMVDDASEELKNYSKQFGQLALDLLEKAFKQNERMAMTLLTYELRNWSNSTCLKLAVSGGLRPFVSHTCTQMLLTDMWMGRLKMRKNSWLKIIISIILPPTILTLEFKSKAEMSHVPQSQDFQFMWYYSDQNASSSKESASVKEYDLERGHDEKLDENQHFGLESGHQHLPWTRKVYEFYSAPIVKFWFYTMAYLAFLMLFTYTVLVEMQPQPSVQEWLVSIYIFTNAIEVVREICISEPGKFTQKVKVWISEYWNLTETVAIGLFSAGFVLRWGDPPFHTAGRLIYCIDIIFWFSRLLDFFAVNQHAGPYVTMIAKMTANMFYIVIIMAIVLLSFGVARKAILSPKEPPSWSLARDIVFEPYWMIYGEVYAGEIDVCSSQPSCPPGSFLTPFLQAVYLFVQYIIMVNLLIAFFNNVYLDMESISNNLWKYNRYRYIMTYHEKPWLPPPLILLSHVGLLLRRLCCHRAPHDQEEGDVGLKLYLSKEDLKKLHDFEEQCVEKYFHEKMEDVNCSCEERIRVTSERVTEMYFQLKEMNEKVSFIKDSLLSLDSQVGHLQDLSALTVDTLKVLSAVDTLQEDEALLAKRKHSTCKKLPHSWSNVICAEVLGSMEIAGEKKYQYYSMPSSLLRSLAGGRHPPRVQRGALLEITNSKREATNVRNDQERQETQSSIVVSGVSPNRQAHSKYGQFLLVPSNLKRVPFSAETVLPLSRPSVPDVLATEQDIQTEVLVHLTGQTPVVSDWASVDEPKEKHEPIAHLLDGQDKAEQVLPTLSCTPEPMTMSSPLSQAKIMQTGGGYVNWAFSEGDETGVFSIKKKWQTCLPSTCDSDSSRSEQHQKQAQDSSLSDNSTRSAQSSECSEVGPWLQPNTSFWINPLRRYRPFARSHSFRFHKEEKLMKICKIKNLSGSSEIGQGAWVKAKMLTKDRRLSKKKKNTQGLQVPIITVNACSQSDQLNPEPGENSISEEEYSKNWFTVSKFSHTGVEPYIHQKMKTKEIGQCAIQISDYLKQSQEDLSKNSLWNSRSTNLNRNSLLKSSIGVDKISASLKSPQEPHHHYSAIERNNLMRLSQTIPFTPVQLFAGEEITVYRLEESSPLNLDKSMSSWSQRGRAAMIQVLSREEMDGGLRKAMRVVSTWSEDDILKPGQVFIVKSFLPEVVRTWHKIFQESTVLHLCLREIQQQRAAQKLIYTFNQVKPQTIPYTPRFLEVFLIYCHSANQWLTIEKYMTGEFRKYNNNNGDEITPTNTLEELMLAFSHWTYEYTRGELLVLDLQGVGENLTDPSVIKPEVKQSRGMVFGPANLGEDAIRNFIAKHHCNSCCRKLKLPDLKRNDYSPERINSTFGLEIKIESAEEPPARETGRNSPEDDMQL
Chain of CDK11 (Q9BWU1 whole entry): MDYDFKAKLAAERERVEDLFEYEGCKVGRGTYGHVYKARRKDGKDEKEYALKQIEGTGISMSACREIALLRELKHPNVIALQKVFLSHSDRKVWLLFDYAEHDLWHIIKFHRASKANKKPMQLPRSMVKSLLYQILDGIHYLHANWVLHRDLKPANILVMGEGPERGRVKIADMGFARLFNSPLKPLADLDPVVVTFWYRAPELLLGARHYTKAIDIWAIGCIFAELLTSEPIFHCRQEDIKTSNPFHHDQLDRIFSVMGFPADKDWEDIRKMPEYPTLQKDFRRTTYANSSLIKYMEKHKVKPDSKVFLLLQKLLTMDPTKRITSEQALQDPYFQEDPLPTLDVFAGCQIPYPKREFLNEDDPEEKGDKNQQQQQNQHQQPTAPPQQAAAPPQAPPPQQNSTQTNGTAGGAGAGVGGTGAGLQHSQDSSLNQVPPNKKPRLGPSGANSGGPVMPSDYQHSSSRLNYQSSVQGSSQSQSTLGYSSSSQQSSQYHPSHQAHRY
T2 sequence (Q13705 19-512): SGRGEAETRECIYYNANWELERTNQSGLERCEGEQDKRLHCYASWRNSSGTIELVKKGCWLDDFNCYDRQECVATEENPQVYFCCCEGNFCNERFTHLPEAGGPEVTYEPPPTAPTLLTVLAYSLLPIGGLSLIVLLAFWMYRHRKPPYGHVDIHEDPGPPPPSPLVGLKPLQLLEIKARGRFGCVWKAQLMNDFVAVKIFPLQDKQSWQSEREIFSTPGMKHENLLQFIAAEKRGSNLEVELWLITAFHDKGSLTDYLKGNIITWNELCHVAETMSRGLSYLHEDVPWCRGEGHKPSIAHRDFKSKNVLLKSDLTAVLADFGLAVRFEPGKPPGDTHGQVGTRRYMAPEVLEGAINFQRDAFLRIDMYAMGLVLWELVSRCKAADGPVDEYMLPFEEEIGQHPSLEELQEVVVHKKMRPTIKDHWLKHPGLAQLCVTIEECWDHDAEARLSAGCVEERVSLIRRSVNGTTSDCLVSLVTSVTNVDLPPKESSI

Row | Compound | remaining binding at 1 µM (PKAC-beta) | remaining binding at 1 µM (ACVR2B) | remaining binding at 1 µM (TRKB) | remaining binding at 1 µM (DAPK1) | remaining binding at 1 µM (TRPM6) | remaining binding at 1 µM (FES) | remaining binding at 1 µM (MYO3A) | remaining binding at 1 µM (AURKA) | remaining binding at 1 µM (LOK) | remaining binding at 1 µM (DCAMKL2) | remaining binding at 1 µM (PRKCE) | remaining binding at 1 µM (KIT(V559D)) | remaining binding at 1 µM (CDK11)
1 | O=C(c1ccc(-c2cnc3[nH]cc(Cl)c3c2NC2CCCC2)cc1)N1CCC(N2CCOCC2)CC1 [Compound 101, (4-(3-chloro-4-(cyclopentylamino)-1H-pyrrolo[2,3-b]pyridin-5-yl)phenyl)(4-morpholinopiperidin-1-yl)methanone] | 90% | 100% | 100% | 80% | 100% | 72% | 100% | 82% | 81% | 99% | 70% | 50% | 35%
2 | CNc1c(-c2cnn([C@H]3CCN(C(C)=O)C[C@@H]3F)c2)cnc2[nH]cc(Cl)c12 [Compound 77, 1-((3S,4S)-4-(4-(3-chloro-4-(methylamino)-1H-pyrrolo[2,3-b]pyridin-5-yl)-1H-pyrazol-1-yl)-3-fluoropiperidin-1-yl)ethan-1-one] | 100% | 77% | 23% | 73% | 89% | 95% | 69% | 35% | 99% | 89% | 51% | 2.8% | 96%
3 | CNc1c(-c2ccc(C(=O)N3CCC(N4CCOCC4)CC3)cc2)cnc2[nH]cc(Cl)c12 [Compound 96, (4-(3-chloro-4-(methylamino)-1H-pyrrolo[2,3-b]pyridin-5-yl)phenyl)(4-morpholinopiperidin-1-yl)methanone] | 100% | 91% | 48% | 74% | 82% | 95% | 64% | 36% | 88% | 78% | 66% | 4.5% | 68%

Source: patent US12275731B2, “Azaindole inhibitors of wild-type and mutant forms of LRRK2” (DANA-FARBER CANCER INSTITUTE, INC., priority 2018, dated 2025)
